Data reported in patent US20070117784A1, “Treatment of hyperproliferative diseases with anthraquinones” (Novacea, Inc., priority 2005, published 2007).
Blank lines part the entries; values can stand above or below the molecule they belong to.

Columns and labels:
human Panc-1 tumors = assay: sc Panc-1 pancreatic xenograft, tumor growth delay; assay type: in vivo, nude mice; conditions: Panc-1 sc, gemcitabine treatment
Description: Mice were actively sacrificed as a cancer death when their tumors reached 1200 mm^3. Shown are Kaplan-Meier plots summarizing the percentage of the animals remaining in the study as a function of time following tumor inoculation. Treatment outcome was determined from TGD, defined as the increase in median TTE in a treatment group as compared to the control group.
In each case, a range of AQ4N dose schedules were evaluated to determine the optimum dosage for efficacy as a single agent.
In the Panc-1 model, the endpoint of the study was pre-defined to be when tumors reached 1200 mm^3 and treatment outcome was determined from tumor growth delay (TGD). TGD is defined as the increase in median time to endpoint (TTE) in a treatment group as compared to the control group, and expressed in days or as a percentage of the median TTE vs. the control group.

[1] = test system: human BxPC-3 pancreatic carcinoma; assay: sc BxPC-3 pancreatic xenograft, tumor growth inhibition; assay type: in vivo, nude mice; conditions: BxPC-3 sc
Description: Shown are the mean (±SEM) tumor volumes measured from treatment and control groups following tumor challenge. The study was terminated when tumors from the vehicle-treated group reached an average of approximately 2 grams (day 27) and the % TGI was calculated as defined in the text. […] Animals were actively sacrificed when they became moribund from excessive tumor burden.

BXPC-3 = assay: MTS cytotoxicity assay, BXPC-3; conditions: Homo sapiens, BXPC-3, 24 h
Panc-1 = assay: MTS cytotoxicity assay, Panc-1; conditions: Homo sapiens, PANC-1, 24 h
MiaPaCa = assay: MTS cytotoxicity assay, MiaPaCa; conditions: Homo sapiens, MIA PaCa-2, 24 h
[2] = test system: BxPC-3 pancreatic carcinoma (orthotopic); assay: Orthotopic BxPC-3 pancreatic carcinoma model, survival; conditions: BxPC-3 ot; gemcitabine treatment; P=0.04
U87MG = assay: MTS cytotoxicity assay, U87MG; assay type: cell-based; conditions: Homo sapiens, U-87 MG, normoxic, 24 h exposure
U118MG = assay: MTS cytotoxicity assay, U118MG; assay type: cell-based; conditions: Homo sapiens, U-118-MG, normoxic, 24 h exposure
U251 = assay: MTS cytotoxicity assay, U251; assay type: cell-based; conditions: Homo sapiens, U-251, normoxic, 24 h exposure
Raji = assay: MTS cytotoxicity assay, Raji; conditions: Homo sapiens, 24 h
KG1a = assay: MTS cytotoxicity assay, KG1a; conditions: Homo sapiens, KG-1a, 24 h
P388 = assay: MTS cytotoxicity assay, P388; conditions: Mus musculus, P388, 24 h
Daudi = assay: MTS cytotoxicity assay, Daudi; conditions: Homo sapiens, 24 h
Ramos = assay: MTS cytotoxicity assay, Ramos; conditions: Homo sapiens, 24 h
HL-60 = assay: MTS cytotoxicity assay, HL-60; conditions: Homo sapiens, HL-60, 24 h
L1210 = assay: MTS cytotoxicity assay, L1210; conditions: Mus musculus, L1210, 24 h
MOLT-4 = assay: MTS cytotoxicity assay, MOLT-4; conditions: Homo sapiens, MOLT-4, 24 h
L5178Y = assay: MTS cytotoxicity assay, L5178Y; conditions: Mus musculus, 24 h
Namalwa = assay: MTS cytotoxicity assay, Namalwa; conditions: Homo sapiens, 24 h
RPMI8226 = assay: MTS cytotoxicity assay, RPMI8226; conditions: Homo sapiens, RPMI-8226, 24 h
RPMI8226/Dox = assay: MTS cytotoxicity assay, RPMI8226/Dox; conditions: Homo sapiens, RPMI-8226, 24 h
CCRF-CEM = assay: MTS cytotoxicity assay, CCRF-CEM; conditions: Homo sapiens, 24 h
CCRF-CEM/VLB = assay: MTS cytotoxicity assay, CCRF-CEM/VLB; conditions: Homo sapiens, 24 h
[3] = mouse, in vivo
FaDu = assay: MTS cytotoxicity assay, FaDu; assay type: cell-based; conditions: Homo sapiens, normoxic, 24 h exposure
KB = assay: MTS cytotoxicity assay, KB; assay type: cell-based; conditions: Homo sapiens, normoxic, 24 h exposure
KB-3 = assay: MTS cytotoxicity assay, KB-3; assay type: cell-based; conditions: KB3; KB-3 (radiation-resistant); normoxic; 24 h exposure
Hep3B2.1-7 = assay: MTS cytotoxicity assay, Hep3B2.1-7; assay type: cell-based; conditions: normoxic, 24 h exposure
HT-29 = assay: MTS cytotoxicity assay, HT-29; assay type: cell-based; conditions: normoxic, 24 h exposure
HCT116 = assay: MTS cytotoxicity assay, HCT116; assay type: cell-based; conditions: 24 h exposure
LoVo = assay: MTS cytotoxicity assay, LoVo; assay type: cell-based; conditions: normoxic, 24 h exposure
LS174T = assay: MTS cytotoxicity assay, LS174T; assay type: cell-based; conditions: normoxic, 24 h exposure
A375-SM = assay: MTS cytotoxicity assay, A375-SM; assay type: cell-based, mouse; conditions: Homo sapiens, normoxic, 24 h exposure
B16-F10 = assay: MTS cytotoxicity assay, B16-F10; assay type: cell-based, human; conditions: Mus musculus, normoxic, 24 h exposure
[4] = single 20 mg/kg dose of AQ4N; previous studies; cited from earlier work
[5] = test system: bladder cancer cell lines; conditions: previous data; cited from earlier work
K562 = assay: MTS cytotoxicity assay, K562; conditions: Homo sapiens, K562, 24 h
ARH177 = assay: MTS cytotoxicity assay, ARH177; conditions: 24 h
[6] = test system: MO59K cells (glioblastoma); assay: Colony formation assay, combination with temozolomide and radiation

SMILES: Nc1ccn([C@@H]2O[C@H](CO)[C@@H](O)C2(F)F)c(=O)n1 [gemcitabine]
TGD as percentage of median TTE vs control (human Panc-1 tumors): 19% | TTE (human Panc-1 tumors; endpoint 1200 mm^3): 34.2 days | TGD (tumor growth delay) (human Panc-1 tumors; non-significant): 5.4 days | TGI ([1]; gemcitabine treatment, ~day 27): 51% | TGI in comparison to vehicle-treated groups ([1]; single-agent, p<0.001, FIG. 20A): significant TGI | IC50 (BXPC-3): 0.0595 µM | IC50 (Panc-1): 1.7 µM | IC50 (MiaPaCa): 0.023 µM | median survival [2]: 40 days

SMILES: COc1cccc2c1C(=O)c1c(O)c3c(c(O)c1C2=O)C[C@@](O)(C(=O)CO)C[C@@H]3O[C@H]1C[C@H](N)[C@H](O)[C@H](C)O1 [Dox, doxorubicin, reference compound]
IC50 (U87MG): 0.4 µM | IC50 (U118MG): 0.03 µM | IC50 (U251): 0.03 µM | IC50 (Raji): 0.0009 µM | IC50 (KG1a): 0.6 µM | IC50 (P388): 0.1 µM | IC50 (Daudi): 0.0005 µM | IC50 (Ramos): 0.0018 µM | IC50 (HL-60): 0.1 µM | IC50 (L1210): 0.05 µM | IC50 (MOLT-4): 0.0075 µM | IC50 (L5178Y): 0.05 µM | IC50 (Namalwa): 0.0074 µM | IC50 (RPMI8226): 0.1 µM | IC50 (RPMI8226/Dox): 54.7 µM

SMILES: CCC1=C[C@@H]2CN(C1)Cc1c([nH]c3ccccc13)[C@@](C(=O)OC)(c1cc3c(cc1OC)N(C)[C@H]1[C@@](O)(C(=O)OC)[C@H](OC(C)=O)[C@]4(CC)C=CCN5CC[C@]31[C@@H]54)C2 [VLB, vinorelbine, reference compound]
IC50 (CCRF-CEM): 0.01 µM | IC50 (CCRF-CEM/VLB): 1040 µM

tumor level by 8 h [3]: minimal levels by 8 h for most doses | plasma level at 2 hr (240 mg/kg AQ4N dose): only trace amounts | metabolite detection in plasma (any AQ4N dose or time point): undetectable
SMILES: CN(C)CCNc1ccc(NCC[N+](C)(C)[O-])c2c1C(=O)c1c(O)ccc(O)c1C2=O [AQ4M]
tumor level vs dose at 2 hr [3]: approximately linear with increasing dose

SMILES: CC(=O)O[C@H]1C(=O)[C@@]2(C)[C@H]([C@H](OC(=O)c3ccccc3)[C@]3(O)C[C@H](OC(=O)[C@H](O)[C@@H](NC(=O)c4ccccc4)c4ccccc4)C(C)=C1C3(C)C)[C@]1(OC(C)=O)CO[C@@H]1C[C@@H]2O [Taxol, reference compound]
IC50 (FaDu): 6.5 µM | IC50 (KB): 2 µM | IC50 (KB-3): 19.1 µM | IC50 (Hep3B2.1-7): 13.7 µM

tumor accumulation vs dose ([3]; 240 mg/kg): dose-dependent fashion | percent of near maximal tumor levels after 2 hr post-infusion ([3]; 2 h): 55-85% | percent of conversion occurring by 8 hr ([3]; 8 h): 80-100%
SMILES: CN(C)CCNc1ccc(NCCN(C)C)c2c1C(=O)c1c(O)ccc(O)c1C2=O [AQ4, 1,4-bis{[2-(dimethylamino)ethyl]amino}-5,8-dihydroxyanthracene-9,10-dione]
IC50 (HT-29; Homo sapiens): 0.7 µM | IC50 (HCT116; Homo sapiens, HCT-116, normoxic): 3.9 µM | IC50 (LoVo; Homo sapiens): 0.21 µM | IC50 (LS174T; Homo sapiens): 0.95 µM | IC50 (U87MG): 0.9 µM | IC50 (U118MG): 1.3 µM | IC50 (U251): 0.6 µM | IC50 (FaDu): 0.3 µM | IC50 (KB): 0.6 µM | IC50 (KB-3): 3.3 µM | IC50 (Hep3B2.1-7): 0.8 µM | IC50 (A375-SM): 3.3 µM | IC50 (B16-F10): 0.02 µM | time AQ4 can be detected in tumor tissues [4]: at least 2 weeks | interaction with radiation [5]: additive interactions | IC50 (Raji): 0.2 µM | IC50 (KG1a): 0.05 µM | IC50 (K562): 0.4 µM | IC50 (P388): 0.01 µM | IC50 (Daudi): 0.0046 µM | IC50 (Ramos): 0.008 µM | IC50 (HL-60): 0.01 µM | IC50 (L1210): 0.0012 µM | IC50 (MOLT-4): 0.002 µM | IC50 (L5178Y): 0.03 µM | IC50 (ARH177): 0.2 µM | IC50 (BXPC-3): 1.6 µM | IC50 (Panc-1): 0.4 µM | IC50 (Namalwa): 0.0002 µM | IC50 (MiaPaCa): 1.6 µM | IC50 (CCRF-CEM): 0.62 µM | IC50 (RPMI8226): 0.2 µM | IC50 (CCRF-CEM/VLB): 0.34 µM | IC50 (RPMI8226/Dox): 1.1 µM | combined cytotoxic effect with temozolomide and radiation ([6]; 48 hr combined treatment, 1.5 Gy at 24 hr, FIG. 24): additive and synergistic cytotoxic effects | combined cytotoxic effect with temozolomide ([6]; 48 hr temozolomide, 10-day colony formation, FIG. 23): additive and synergistic cytotoxic effects

SMILES: CCc1c2c(nc3ccc(O)cc13)-c1cc3c(c(=O)n1C2)COC(=O)[C@]3(O)CC [SN38, 7-ethyl-10-hydro-camptothecin, reference compound]
IC50 (HT-29): 0.0651 µM | IC50 (HCT116; normoxic): 0.0484 µM | IC50 (LoVo): 0.0006 µM | IC50 (LS174T): 0.0026 µM
